The text below walks through data of PubChem BioAssay (NCI).

Experiment in all cases: DTP human tumour cell line panel, 48 h
For experiment [1], the system named is CAKI-1 renal.
The subject of experiment [2] is CCRF-CEM leukemia.
The test system of experiment [3] is HCT-15 colon.
The test system of experiment [4] is HOP-62 NSCLC.
The subject of experiment [5] is K-562 leukemia.
Experiment [6] has as its system OVCAR-4 ovarian.
In experiment [7] the test system is SK-MEL-2 melanoma.
The test system of experiment [8] is SN12C renal.
In experiment [9] the test system is U251 CNS.
The test system of experiment [10] is HOP-92 NSCLC.

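Exposure lasted 48 hours, with cells grown in 96-well plates and compounds tested at five concentrations. GI50 marks 50% less growth. TGI is the concentration that stops growth completely.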

Regarding `COc1cc2oc(-c3ccc(O)cc3)cc(=O)c2c(O)c1C1OC(CO)C(O)C(O)C1O` (configuration not stated), the TGI in experiment [1], in [2], in experiment [3], in experiment [4], in [5] and in experiment [6] was over 100 µM each time. For the same compound, the TGI in [7], in experiment [8] and in experiment [9] was over 100 µM throughout.

In the case of `COCC([C@@H](O)C(O)C(=O)NCC[C@@H](C)c1nc(/C=C/CC2OC3(C[C@H](O)C2C)OC(C(C[C@H](O)C(C)[C@H](O)C(C)/C=C(C)/C(C)=C/C=C/C(C)=C/C#N)OC)[C@@H](OP(=O)(O)O)C3(C)C)co1)N(C)C` (some centres not stated), the TGI (as a rule, the concentration at which net growth stops) in experiment [1] was found to be 0.000325 µM; in experiment [3], 0.000462 µM; in [10] it was 0.000316 µM; in experiment [6] it was 0.00274 µM; in experiment [7], 0.000333 µM; in [8] it was 0.00034 µM. The compound further gave a TGI in [9] of 0.000332 µM.

`COc1ccc(OC)c(/C=C/c2nc(=S)n(-c3ccc(Cl)cc3)[nH]2)c1`: the GI50 – broadly, the concentration at which growth is held to half of that of the control – in experiment [2] is 4.77 µM; in experiment [3], 4.39 µM; in experiment [4] it was 6.48 µM; in experiment [10] it was 3.56 µM; in [5] it was 4.95 µM; in experiment [6], 20.6 µM. Moreover, the figures for the GI50 in experiment [7], in experiment [8] and in experiment [9] were 4.05 µM, 6.07 µM and 6.88 µM, respectively. For the same compound, the TGI in experiment [2], in experiment [3], in experiment [4], in experiment [10], in experiment [5] and in experiment [6] was over 100 µM in each case. The TGI in experiment [7], in experiment [8] and in [9] was over 100 µM throughout.

With `Nc1ncnc2c1N=C(c1ccc3c(c1)OCO3)CC(c1ccc(Cl)cc1)N2` (configuration not stated), the GI50 in experiment [1] was 22.7 µM; in experiment [3] it was 3.05 µM; in experiment [4], 16.6 µM; in experiment [5], 4.27 µM; in experiment [6] it was 4.58 µM; in [8], 80.4 µM. In addition, the GI50 in experiment [9] is 6.19 µM. For the same compound, the TGI in [1] is 86.3 µM; in experiment [3] it was over 100 µM; in [4] it was 42.6 µM; in experiment [5], over 100 µM; in experiment [6] it was 35.2 µM; in [8], over 100 µM. The same compound had a TGI in experiment [9] of 25.8 µM.

For the compound `O=C(NC1C(=O)NNC1c1cccc([N+](=O)[O-])c1)c1ccccc1` (configuration not stated), the TGI in [2], in [4], in experiment [10], in experiment [6], in [7] and in experiment [8] was over 100 µM each time. The compound further displayed a TGI in [9] of over 100 µM.

As for `COc1ccc(OC)c(NCC(=O)n2nc(/C=C\c3ccc(O)c(OC)c3)cc2/C=C\c2ccc(O)c(OC)c2)c1`, the GI50 was 0.474 µM in [2]; 2.09 µM in [3]; 3.03 µM in [4]; 4.76 µM in [10]; 0.729 µM in [5]; 3.43 µM in experiment [6]. Moreover, the figures for the GI50 in [7], in experiment [8] and in [9] were 2.3 µM, 2.52 µM and 2.36 µM, respectively. For the same compound, the concentration for total growth inhibition (TGI) in experiment [2] is over 100 µM; in [3], 11.8 µM; in experiment [4], 13 µM; in [10] it was 53.8 µM; in [5], over 100 µM; in experiment [6], 22.7 µM. Moreover, the total growth inhibition concentration (TGI) was 7.04 µM in experiment [7], over 100 µM in experiment [8] and 12 µM in [9].

With `O=c1cc(O)cc2n1CCC2`, the TGI in [1], in experiment [2], in experiment [3], in experiment [4], in experiment [5] and in experiment [7] was over 100 µM each time. In addition, the TGI in experiment [8] and in experiment [9] was over 100 µM throughout.

Take `Cc1c(C(=N)C(C#N)C#N)c(=N)oc2c1ccc1ccccc12`: the GI50 in experiment [1] was 7.51 µM; in [2], 13 µM; in [3], 13.4 µM; in experiment [4], 21.7 µM; in [5] it was 19.4 µM; in [6] it was 19.7 µM. Also, the values for the GI50 in experiment [7], in [8] and in [9] were 18 µM, 22 µM and 14.5 µM, respectively. In addition, the TGI in [1] was over 100 µM; in [2] it was over 100 µM; in experiment [3] it was 72.5 µM; in experiment [4], 77.6 µM; in experiment [5], over 100 µM; in experiment [6] it was over 100 µM. Besides, the results for the TGI in experiment [7], in experiment [8] and in experiment [9] were 56.4 µM, over 100 µM and 37.2 µM, respectively.

For the compound `O=C(Nc1ccc(N=C=S)cc1Cl)c1cc(Br)cc(Br)c1O`, the TGI in [1] was over 100 µM; in experiment [3] it was 31.3 µM; in experiment [4], 84.4 µM; in experiment [10] it was 56 µM; in experiment [5], 97.1 µM; in [6] it was over 100 µM. Further, the TGI in experiment [7] is over 100 µM; in experiment [8], 24.1 µM; in experiment [9], 53.1 µM.

For the compound `COc1ccc(C(=O)c2cc(OC)c(OC)c(OC)c2OC)cc1O`, the GI50 in experiment [1] is 2.21 µM; in experiment [3] it was 3.48 µM; in [4], 4.14 µM; in experiment [10] it was 4.73 µM; in [6], 6.14 µM; in experiment [7], 4.28 µM. The GI50 was 6.64 µM in [8] and 3.61 µM in experiment [9]. The TGI in experiment [1] is 6.28 µM; in [3], over 100 µM; in experiment [4], over 100 µM; in experiment [10], over 100 µM; in experiment [6], over 100 µM; in experiment [7], over 100 µM. For the same compound, the TGI in experiment [8] and in [9] was over 100 µM in each case.

For the compound `COC(=O)CCC(NC(=S)N/N=C/c1cccs1)C(=O)OC` (configuration not stated), the TGI in [3], in experiment [4], in experiment [10], in experiment [5], in experiment [6] and in experiment [7] was over 100 µM each time. In addition, the TGI in [8] and in experiment [9] was over 100 µM throughout.
